Results reported in patent US7410989B2, “Compounds, methods and compositions useful for the treatment of bovine viral diarrhea virus (BVDV) infection and hepatitis C virus (HCV) infection” (The University of North Carolina at Chapel Hill, priority 2001, dated 2008).

Tested on: BVDV
Assay: Screening of antiviral compounds for anti-BVDV activity in MDBK cells; virus titre by immunoperoxidase monolayer assay
Assay type: cell-based, bovine viral diarrhea virus
Details: 12.5 μM compound, BVDV MOI 0.5, day 3; for Day 3 Media TCID50/mL / Day 3 Media % Control: culture medium; for Day 3 Cell Lysates % Control / Day 3 Media % Control: titre as % of no-antiviral control
Protocol: 2.0 cm^2 wells in a 24-well plate were seeded with 50 μl of medium from 12 ml of MEM-eq (minimum essential medium (MEM) with Earle's salts supplemented with 10% (v/v) equine serum, sodium bicarbonate (0.75 mg/ml), L-glutamine (0.29 mg/ml), penicillin G (100 U/ml), streptomycin (100 μg/ml), and amphotericin B (0.25 μg/ml)), which was derived by trypsinization of a confluent monolayer of Madin Darby Bovine Kidney (MDBK) cells in a 25 cm^2 flask. Cells were incubated at 38.5° C. with 5% CO2 for 24 hours. The average number of cells per well was determined and later used to calculate appropriate multiplicities of infection (MOI) of BVDV virus. […]
The inoculated cells incubated for one hour at 38.5° C. with 5% CO2 in humidified air. The medium was removed from the wells, and the cells washed one time with Ca^2+ and Mg^2+-free PBS comprising antiviral compound (12.5 μM) (cells in the wells not initially treated with antiviral compounds were washed without antiviral compound). […] Three days post-inoculation, medium was removed and stored at −20° C. for assay. […] Seven days post-inoculation, medium was removed and stored at −80° C. for serial dilution & assay.
The MDBK cells were resuspended in MEM-eq with no antiviral compound. Uterine tubal cells (UTC) were freeze-thawed and stored at −80° C. for analysis. UTC lysates were serially diluted with medium from Day 7 and assayed by immunoperoxidase for the presence of BVDV.
All samples were assayed for BVDV using the immunoperoxidase monolayer assay as described in A. Afshar et al., Can J Vet Res; 55:91-93 (1991). Samples were assayed in triplicate by adding 50 μL of MEM-eq containing approximately 2.5×10^3 MDBK cells to 50-μL of each sample supplemented with 50 μL of fresh MEM-eq in a 96-well culture plate. Plates were incubated for 72 h at 38.5° C. in a humidified atmosphere of 5% CO2 and air before the immunoperoxidase labeling technique was performed as follows:
After fixation, potentially infected cells were incubated with monoclonal antibodies D89 (M. L. Vickers et al., J Vet Diagn Invest 2, 300-302 (1990); Xue W et al., J Clin Microbiol 28, 1688-1693 […] specific for E2/gp53, a major envelope glycoprotein of BVDV (Xue W et al., Vet Microbiol 57, 105-118 (1997)) and 20.10.6 specific for NS3-p80, a conserved nonstructural protein (W. V. Corapi et al., Am J Vet Res 51, 1388-1394 (1990)). After washing with PBS and Tween 20 to remove unbound antibodies, peroxidase-conjugated rabbit anti-mouse IgG (Jackson Immuno Research Lab, West Grove, Pa.) was added. After a short incubation period, unbound peroxidase-conjugated antibody was removed by washing with PBS and Tween 20. Finally, the enzyme substrate, aminoethyl carbazole (Zymed Laboratories, Inc., South San Francisco, Calif.), which produces a reddish-brown color when oxidized by horseradish peroxidase, was added. Color change was visualized under light microscopy and compared to known positive and negative controls on each plate.
The tissue culture infective dose 50% (TCID50)/ml of the exposure aliquot was determined by the method of Reed and Muench (L. J. Reed and H. Muench, Am J Hygiene 27, 493-497 (1938). Results of viral detection assays were compared using a Pearson Chi-square test statistic (J. Sall and A. Lehman, JMP Start Statistics (Duxbury Press, Belmont, Calif. (1996), 195-211).

CC(C)NC(=N)c1ccc2[nH]c(-c3ccc(-c4ccc([N+](=O)[O-])cc4)o3)nc2c1 [DB 458, 2-[5 (6)-{N-isopropylamidino}-2-benzimidazoyl]-5-(4-nitrophenyl)furan]
Day 3 Cell Lysates TCID50/mL: Negative
Day 3 Media TCID50/mL: Negative

CC(C)NC(=N)c1ccc2[nH]c(-c3ccc(-c4ccc(N)cc4)o3)nc2c1 [DB 459, 2-[5(6)-N-isopropylamidino-2-benzimidazoyl]-5-(4-aminophenyl)furan]
Day 3 Cell Lysates TCID50/mL: 1.00E+02 TCID50/mL
Day 3 Cell Lysates % Control: 0.0016%
Day 3 Media TCID50/mL: Negative

COc1ccc(-c2ccc(-c3ccc(C4=NCCN4)cc3)o2)cc1 [DB 606]
Day 3 Cell Lysates TCID50/mL: Negative
Day 3 Media TCID50/mL: Negative

Cc1cc(NC(=N)N)ccc1-c1ccc(-c2ccc(NC(=N)N)cc2C)o1 [DB 680]
Day 3 Cell Lysates TCID50/mL: Negative
Day 3 Media TCID50/mL: Negative

N=C(N)Nc1ccc(-c2ccc(-c3ccc(NC(=N)N)cc3C(F)(F)F)o2)c(C(F)(F)F)c1 [DB 701]
Day 3 Cell Lysates TCID50/mL: 3.50E+04 TCID50/mL
Day 3 Cell Lysates % Control: 0.5645%
Day 3 Media TCID50/mL: 6.20E+03 TCID50/mL
Day 3 Media % Control: 0.1771%

N=C(N)Nc1ccc(-c2ccc(-c3cccc(NC(=N)N)c3)o2)cc1 [DB 705]
Day 3 Cell Lysates TCID50/mL: Negative
Day 3 Media TCID50/mL: Negative

N=C(N)Nc1ccc(-c2ccc(-c3ccc(NC(=N)N)cc3Cl)o2)c(Cl)c1 [DB 708]
Day 3 Cell Lysates TCID50/mL: Negative
Day 3 Media TCID50/mL: Negative

COc1cc(NC(=N)N)ccc1-c1ccc(-c2ccc(NC(=N)N)cc2OC)o1 [DB 711]
Day 3 Cell Lysates TCID50/mL: 2.00E+07 TCID50/mL
Day 3 Cell Lysates % Control: 322.5806%
Day 3 Media TCID50/mL: 2.40E+05 TCID50/mL
Day 3 Media % Control: 6.8571%

Cc1cc(NC(=N)N)ccc1-c1ccc(-c2ccc(NC(=N)N)cc2C)s1 [DB 752]
Day 3 Cell Lysates TCID50/mL: 6.20E+02 TCID50/mL
Day 3 Cell Lysates % Control: 0.01%
Day 3 Media TCID50/mL: Negative
